Data as given in patent publication US4853385A, “7-N,8-N-Ethylenemitomycin 8-imines” (Kyowa Hakko Kogyo Co., Ltd., priority 1987, dated 1989).

Legend:
Sarcoma 180 solid tumor = assay: Antitumor activity against sarcoma 180 solid tumor (tumor volume T/C, ED50); format: in vivo; settings: ddY mice; for CI (chemotherapy index, LD50/ED50): sarcoma 180 solid tumor, i.p.; for ED50: Mus musculus, Sarcoma-180, ip, 168 h, i.p. 24 h after s.c. implantation, tumor volume at 7 days, dose for T/C 0.5
Method: (§1) Some compounds were chosen from Compound I, and antitumor activity (ED50) against Sarcoma 180 solid tumor and acute toxicity (LD50) were measured.
(1) Effect on sarcoma 180 solid tumor
Sarcoma 180 cells of 5×10^6 were intraperitoneally implanted into ddY mice. Seven days after, the cells were collected from the ascites. The cells were washed once with a sterile physiological saline, and the cells were suspended in sterile physiological saline to prepare a cell suspension containing 5×10^7 cells per ml. 0.1 ml of the suspension was subcutaneously implanted into the right axilla of male ddY mice weighing 20±2 g. The test compound was dissolved in physiological saline with or without addition of Tween 80 and was administered intraperitoneally into each mouse of a group consisting of 5 mice at a dose of 0.1-0.2 ml, 24 hours after the implantation of the tumor cells.
The anti-tumor activity was determined in the following manner. 7 days after the implantation, the major axis (a) and the minor axis (b) of the tumor were measured to calculate a value of "a×b^2 /2" which corresponds to the volume of the tumor. The anti-tumor activity was expressed by the ratio (T/C) of the volume (T) of the tumors of the group of animals administered with the test compound to the corresponding volume (C) of tumors of the untreated animals.
(2) Determination of ED50 :
On graph paper, T/C was indicated by an arithmetic scale on the longitudinal axis and the administered amount of the test compound was indicated by a logarithmic scale on the lateral axis. The relationship between the dose and T/C was plotted by a straight line determined by the method of least squares, from which a dose corresponding to T/C of 0.5 was obtained.
CI in the table indicates chemotherapy index and given by:
As is clear from this definition, the CI value reflects selective toxicity against tumor. As the CI value is larger, the effect as an antitumor agent is more excellent, and from a clinical viewpoint, allowance of chemicals in dosage becomes broader. Therefore, the CI value is one of the most important indices in evaluation of antitumor agents.

[1] = test system: lymphocytic leukemia P-388; assay: Antitumor activity against lymphocytic leukemia P-388; format: in vivo, CDF1 mice (P-388 from DBA/2 mice); settings: single i.p., 33-day observation
Method: (§2) Some compounds were chosen from Compound I and antitumor activity against lymphocytic leukemia P-388 and mitomycin C-resistant P-388 was measured.
The experiment was carried out by the following method.
(§3) From the peritoneal cavity of P-388 ascitic tumor-bearing mice (DBA/2) 7 days after the implantation, an ascitic fluid was collected. The cell number of P-388 in the ascitic fluid was counted, and the cells were suspended in sterile physiological saline to prepare a tumor cell suspension containing 5×10^6 cells/ml. 0.2 ml (containing 1×10^6 cells) of the suspension was implanted intraperitoneally into CDF1 mice weighing 20 to 25 g. The test compound was intraperitoneally administered to each mouse of one test group consisting of 6 CDF1 mice at a single dosage in 24 hours after the implantation of the tumor. 33-Day observation gave the survived life span for each mouse. Evaluation of the effect of the test compound was made by a ratio of a mean survival days after the implantation of the mice treated with the test compound to a mean survival days of the mice untreated with the test compound in the control group (Increased Life Span, ILS%). Then, ILS*, which is a ratio of ILS % of the test compound to ILS % of mitomycin C used as a reference compound under the same conditions, was calculated and shown in Table 4.

[2] = Acute toxicity (LD50, Beherns Kaerber's method); settings: mouse, in vivo, ip; single i.p. administration, 14 days observation, ddY mice
Method: as §1
Each animal of the test group consisting of 5 ddY mice was administered intraperitoneally once with a test compound. […] The LD50 was determined by Beherns Kaerber's method.

[3] = test system: mitomycin C-resistant P-388; assay: Antitumor activity against mitomycin C-resistant P-388; format: in vivo, CDF1 mice (P-388 from DBA/2 mice); settings: single i.p.
Method: as §2, §3
Further, the experiment was carried out in the same manner as above, using lymphocytic leukemia P-388 resistant to mitomycin C. Evaluation of the effect of the test compound is shown by a ratio (ILS %) to a mean survival data of the control group (untreated mice).

Compound | CI (chemotherapy index, LD50/ED50) (Sarcoma 180 solid tumor) | ED50 (Sarcoma 180 solid tumor) [mg/kg] | ILS* (ratio of ILS % of test compound to ILS % of mitomycin C) ([1]; P-388, dose 1.5 mg/kg) | LD50 at 336 h [2] [mg/kg] | ILS(%) (ratio to mean survival of the untreated control group) ([3]; mitomycin C-resistant P-388, dose 1.5 mg/kg) | ILS* (ratio of ILS % of test compound to ILS % of mitomycin C) ([1]; P-388, dose 1.25 mg/kg) | ILS(%) (ratio to mean survival of the untreated control group) ([3]; mitomycin C-resistant P-388, dose 1.25 mg/kg) | ILS* (ratio of ILS % of test compound to ILS % of mitomycin C) ([1]; P-388, dose 100 mg/kg) | ILS(%) (ratio to mean survival of the untreated control group) ([3]; mitomycin C-resistant P-388, dose 100 mg/kg)
CO[C@@]12[C@H](COC(N)=O)C3=C(C(=O)C(C)=C4NCCN=C43)N1C[C@H]1[C@@H]2N1C (stereo partly drawn) [Compound 1, 7-N,8-N-ethyleneporfiromycin 8-imine] | 1.73 | 1.5 | 0.60 | 2.6 | 135 | – | – | – | –
CC1=C2NCCN=C2C2=C(C1=O)N1C[C@H]3[C@H](N3C)[C@]1(O)[C@H]2COC(N)=O (stereo partly drawn) [Compound 2, 7-N,8-N--Ethylenemitomycin D 8-imine] | 2.12 | 10.6 | – | 22.5 | – | – | – | – | –
CO[C@]12[C@@H]3[C@H](CN1C1=C(C4=NCCNC4=C(C)C1=O)[C@@H]2COC(N)=O)N3C (stereo partly drawn) [Compound 3, 7-N,8-N--Ethylenemitomycin E 8-imine] | 1.51 | 3.7 | – | 5.6 | – | – | – | – | –
C=C1C2=C(C(=O)C(C)=C3NCCN=C32)N2C[C@H]3[C@H](N3C)[C@]12O (stereo partly drawn) [Compound 4, 9a-O--Demethyl-7-N,8-N--ethylenemitomycin G 8-imine] | 2.11 | 47.5 | – | 100 | – | – | – | – | –
CO[C@@]12[C@H](COC(N)=O)C3=C(C(=O)C(C)=C4NC5CCCCC5N=C43)N1C[C@H]1[C@@H]2N1C (stereo partly drawn) [Compound 5, 7-N,8-N--(1,2-Cyclohexylene) porfiromycin 8-imine] | – | – | – | – | – | 0.56 | 144 | – | –
CO[C@@]12[C@H](COC(N)=O)C3=C(C(=O)C(C)=C4NCCN=C43)N1C[C@@H]1N[C@@H]12 [Compound A, 7-N,8-N-ethylenemitomycin C 8-imine, reference compound] | 1.10 | 5.9 | – | 6.5 | – | – | – | 0.43 | 107
